Patent publication US10450258B2, “Substituted aromatic compounds for the treatment of pulmonary fibrosis, liver fibrosis, skin fibrosis and cardiac fibrosis” (PROMETIC PHARMA SMT LIMITED, priority 2013, dated 2019)
Where a name gives a salt, the structure may show the parent alone.

Key:
[1] = system: collagen 1 mRNA in HK-2 cells (epithelial cells); test: Inhibition of collagen mRNA in TGF-β-treated HK-2 epithelial cells; format: cell-based; settings: for inhibition at 500 µM: HK-2, compound 0.5 mM; for Collagen HK-2 cells % inhibition: compound 0.25 mM
Procedure: (§1) CTGF, collagen 1 and α-SMA are fibrotic markers produced by activated fibroblasts and by epithelial cells that undergo to epithelial-mesenchymal transition (EMT).
(§2) Table 2: Percentage of inhibition of collagen in epithelial cells (HK2 cells) and fibroblasts (NHDF) and percentage of inhibition of α-SMA in fibroblasts (NRK-49F and NHDF) has been determined for several compounds according the invention. In all cases, the mRNA of collagen and α-SMA has been measured, and the inhibition was evaluated in presence of a respective concentration of the tested compound. The compounds have been tested at different concentrations [mM]. All compounds reduce the expression of collagen and α-SMA in HK-2, NHDF and NRK-49F cells.

[2] = system: collagen 1 mRNA in NHDF cells; test: Inhibition of collagen mRNA in TGF-β-activated NHDF fibroblasts; format: cell-based; settings: Homo sapiens, compound 0.5 mM
Procedure: as §1, §2

[3] = system: α-SMA mRNA in NRK-49F cells; test: Inhibition of α-SMA mRNA in TGF-β-activated NRK-49F fibroblasts; format: cell-based, rat
Procedure: as §1, §2

[4] = system: CCl4-induced liver fibrosis mouse model; test: CCl4-induced liver fibrosis mouse model; format: in vivo, mouse (male C57BL/6); settings: CCl4 twice a week for 8 weeks; oral 100 and 200 mg/kg every day, day 1 to day 58; FIG. 22
From the text: Hepatic fibrosis is an outcome of many chronic liver diseases, including hepatitis B virus, hepatitis C virus, alcoholic liver disease, non-alcoholic steatohepatitis and diverse chronic intoxication. It was thus desired to evaluate the effect of Compound I on murine CCl4-induced liver fibrosis. Intoxication with CCl4 results in hepatocyte damage, necrosis, inflammation, and fibrosis, which spreads to link the vascular structures that feed into and drain the hepatic sinusoid (the portal tract and central vein radical, respectively), and over 8-30 weeks results in the development of fibrosis to hepatocellular carcinoma. Therefore, evaluation of candidate antifibrotic drugs such as Compound I can be undertaken by treatment of the mice at appropriate time points and histologic, biochemical and cellular readouts may be used to monitor candidate drug efficacy in this model.
CCl4 (10% in corn oil, 2 ml/kg) was intraperitoneally injected twice a week for 16 weeks in male C57BL/6. Compound I (200 mg/kg) was orally administered every day from day 1 to day 113. Mice were euthanasized and histology and liver fibrotic markers were analyzed.
To determine if Compound I has an effect on liver fibrosis, hydroxyproline level was used to measure the collagen content in the tissue, which is indicative of liver fibrosis.
The reduction of collagen level in liver tissue was also observed in histological micrographs using the Masson's Trichrome staining.
The Masson's trichrome stain the cytoplasm, keratin, muscle fibers and intracellular fibers in red colour; nuclei in black colour and collagen (fibrous tissue) in blue color.
Another experiment has been performed with Compound 1 and Compound V where CCL4 (10% in olive oil, 2 ml/kg) was intraperitoneally injected twice a week for 8 weeks in male C57BL/6. Compound 1 and compound V were orally administered (100 and 200 mg/kg) every day from day 1 to day 58. Mice were euthanasized and collagen content (marker of fibrosis) in the liver was quantified by histomorphometry using Masson's trichrome staining.

α-SMA mRNA in NHDF cells = test: Inhibition of α-SMA mRNA in TGF-β-activated NHDF fibroblasts; format: cell-based; settings: Homo sapiens, compound 0.5 mM
Procedure: as §1, §2

[5] = system: bleomycin-induced pulmonary fibrosis mouse model; test: Bleomycin-induced pulmonary fibrosis mouse model: body weight and lung histology; format: in vivo, mouse (male C57BL6); settings: oral, Compound I 200 mg/kg, pirfenidone 400 mg/kg
Procedure: Intratracheal instillation of the anticancer drug bleomycin into the mouse results in acute inflammation followed by a chronic fibrotic response. Therefore, evaluation of candidate antifibrotic drugs such as Compound I can be undertaken by treatment of the mice at appropriate time points and histologic, biochemical and cellular readouts may be used to monitor candidate drug efficacy in this model.
(§3) Male C57BL6 mice are administered intratracheal instillation of bleomycin sulphate (0.025 U) at day 0, randomized and administered Compound I (oral administration, 100 mg/kg and 200 mg/kg) on day 7 to day 20.
Lesions score was evaluated using HEP (Hemalun with Eosin/Ploxine) and Masson's trichrome staining. Lesions score was recorded as 1) Consolidation as shown by disrupted lung architecture (cellular and/or fibrosis) and 2) Alveolar wall as shown by thickness and shrinking outside of consolidated area.
(§4) It was therefore evaluated side-by-side with Compound I in the bleomycin-induced pulmonary fibrosis mouse model by the same protocol described in Example 4 above. Compound I (200 mg/kg) and pirfenidone (400 mg/kg) were orally administered either alone or in combination.
Lesions score was evaluated using HEP (Hemalun with Eosin/Ploxine) and Masson's trichrome staining and recorded as 1) Consolidation as shown by disrupted lung architecture (cellular and/or fibrosis), and 2) Alveolar wall as shown by thickness and shrinking outside of consolidated area.
The lesions score as determined by the percentage of leukocyte infiltration (inflammatory zone) multiplied by the percentage of collagen found in the leukocyte infiltrate was quantified by histomorphometry using Masson's trichrome staining.
Visual grading of pulmonary fibrosis was also determined according to Ashcroft's score. Briefly, the entire fields of each lung section were read by a blinded examiner, and each field was visually graded from 0 to 8. Criteria for grading lung fibrosis were as follows: Grade 0=normal lung; Grade 1=minimal fibrous thickening of alveolar or bronchiolar walls; Grade 3=moderate thickening of walls without obvious damage to lung architecture; Grade 5=increased fibrosis with definitive damage to lung structure and formation of fibrous bands or small fibrous masses; Grade 7=severe distortion of structure and large fibrous area; Grade 8=total fibrous obliteration of lung fields.

[6] = system: TGF-β, CTGF, IL-23p19, IL-6, collagen 1, fibronectin (FN-1), collagen 3 mRNA in lung tissue; test: Real-time PCR of inflammatory and fibrotic marker mRNA in lung tissue, bleomycin-induced pulmonary fibrosis mouse model; format: in vivo, mouse (male C57BL6); settings: oral, Compound I 200 mg/kg, pirfenidone 400 mg/kg, alone or combined
Procedure: as §3
Further analysis of the lung tissue was undertaken. CTGF, collagen 1 and IL-23p19 mRNA expression was quantified by real-time PCR.
as §4
In order to determine the effect of Compound I on pulmonary fibrosis, further analysis of the lung tissue was undertaken. TGF-β, CTGF, IL-23 and IL-6 mRNA expression was quantified by real-time PCR. […] Oral administration of pirfenidone had no effect on CTGF mRNA expression but decreased TGF-β, IL-23 and IL-6 mRNA expression. […]

[7] = Toxicity related to drug in the bleomycin-induced pulmonary fibrosis mouse model; format: in vivo; settings: oral, Compound I 200 mg/kg, pirfenidone 400 mg/kg, alone or in combination, solubilized in PBS
Procedure: as §4
Compound I and pirfenidone were solubilized in PBS. In the combination therapy, pirfenidone was solubilized in a solution of Compound I. No toxicity was reported with Compound I treatment.

[8] = Rattus norvegicus, NRK-49F, compound 0.5 mM
[9] = Rattus norvegicus, NRK-49F, compound 0.25 mM

CCCCCc1cc(O)cc(CC(=O)O)c1 [Compound II, Sodium Salt of 3-hydroxy-5-pentylphenylacetic acid]
inhibition at 500 µM ([1]; Homo sapiens): 43% | inhibition at 500 µM [2]: 40% | inhibition at 500 µM [3, 8]: 66%

CCCCCc1cc(F)cc(CC(=O)O)c1 [Compound III, Sodium Salt of 3-fluoro-5-pentylphenylacetic acid]
inhibition at 500 µM ([1]; Homo sapiens): 100% | inhibition at 250 µM [3, 9]: 100%

CCC/C=C/c1cccc(CC(=O)O)c1 [Compound IV, Sodium Salt of E-(3-pent-1-enyl-phenyl)acetic acid]
inhibition at 500 µM [3, 8]: 64%

CCCCCc1cccc(C(F)C(=O)[O-])c1.[Na+] (stereo not drawn) [Compound IX, Sodium Salt of 2-Fluoro-2-(3-pentylphenyl)acetic acid]
α-SMA NRK-49F cells % inhibition ([3]; compound 0.5 mM): 82%

CCCCCc1ccc(O)c(CC(=O)O)c1 [Compound V, Sodium Salt of (2-hydroxy-5-pentylphenyl)acetic acid]
collagen content in liver (histomorphometry, Masson's trichrome) [4]: significant reduction | inhibition at 500 µM ([1]; Homo sapiens): 100% | inhibition at 500 µM [2]: 100% | inhibition at 500 µM [3, 8]: 100% | inhibition at 500 µM (α-SMA mRNA in NHDF cells): 100%

CCCCCc1cc(CCC(=O)O)ccc1F [Compound VI, Sodium Salt of 3-(4-fluoro-3-pentylphenyl)propionic acid]
inhibition at 125 µM ([3]; Rattus norvegicus, NRK-49F, compound 0.125 mM): 90%

CCCCCc1cccc(CCC(=O)[O-])c1.[Na+] [Compound VII, Sodium Salt of 3-(3-pentylphenyl)propionic acid]
α-SMA NRK-49F cells % inhibition ([3]; compound 0.25 mM): 100%

CCCCCc1cccc(C(C)C(=O)[O-])c1.[Na+] (stereo not drawn) [Compound VIII, Sodium Salt of 2-(3-pentylphenyl)propionic acid]
α-SMA NRK-49F cells % inhibition ([3]; compound 0.25 mM): 86%

CCCCCc1cccc(C(C)(C)C(=O)[O-])c1.[Na+] [Compound X, Sodium Salt of 2-methyl-2-(3-pentylphenyl)propionic acid]
α-SMA NRK-49F cells % inhibition ([3]; compound 0.1 mM): 46%

CCCCCCc1cccc(CC(=O)O)c1 [Compound XI, Sodium Salt of 2-(3-Hexylphenyl)acetic acid]
inhibition at 100 µM ([3]; Rattus norvegicus, NRK-49F, compound 0.1 mM): 80%

CCCCC=Cc1cccc(CC(=O)[O-])c1.[Na+] [Compound XII, Sodium Salt of 2-(3-(Hex-1-enyl)phenyl)acetic acid]
α-SMA NRK-49F cells % inhibition ([3]; compound 0.1 mM): 49%

CCCC=Cc1ccc(F)c(CC(=O)[O-])c1.[Na+] [Compound XIII, Sodium Salt of 2-(2-Fluoro-5-(pent-1-enyl)phenyl)acetic acid]
α-SMA NRK-49F cells % inhibition ([3]; compound 0.5 mM): 84%

CCCCCc1cc(CC(=O)O)ccc1O [Compound XIV, Sodium Salt of 2-(4-Hydroxy-3-pentylphenyl)acetic acid]
inhibition at 500 µM ([1]; Homo sapiens): 72% | inhibition at 500 µM [2]: 26% | inhibition at 500 µM [3, 8]: 92%

CCCCCc1cccc(CC(=O)[O-])c1O.[Na+] [Compound XIX, Sodium Salt of 2-(2-Hydroxy-3-pentylphenyl)acetic acid]
Collagen HK-2 cells % inhibition [1]: 100% | α-SMA NRK-49F cells % inhibition ([3]; compound 0.25 mM): 100%

CCCCCc1cc(CC(=O)O)ccc1F [Compound XV, Sodium Salt of 2-(4-Fluoro-3-pentylphenyl)acetic acid]
inhibition at 500 µM ([1]; Homo sapiens): 100% | inhibition at 500 µM [3, 8]: 100%

CCCCCc1cccc(CC(=O)O)c1F [Compound XVI, Sodium Salt of 2-(2-Fluoro-3-pentylphenyl)acetic acid]
inhibition at 500 µM ([1]; Homo sapiens): 100% | inhibition at 250 µM [3, 9]: 100%

CCCCCc1cc(CCC(=O)[O-])ccc1O.[Na+] [Compound XVII, Sodium Salt of 3-(4-Hydroxy-3-pentylphenyl)propanoic acid]
Collagen HK-2 cells % inhibition [1]: 0% | α-SMA NRK-49F cells % inhibition ([3]; compound 0.5 mM): 66%

CCCCCc1cccc(C(=O)C(=O)[O-])c1.[Na+] [Compound XVIII, Sodium Salt of 2-Oxo-2-(3-pentylphenyl)acetic acid]
α-SMA NRK-49F cells % inhibition ([3]; compound 0.25 mM): 100%

CCCCCc1cc(O)c(Cc2ccccc2)c(CC(=O)O)c1 [Compound XX, Sodium Salt of 2-(2-Benzyl-3-hydroxy-5-pentylphenyl)acetic acid]
inhibition at 125 µM ([1]; Homo sapiens, HK-2, compound 0.125 mM): 73% | inhibition at 62.5 µM ([3]; Rattus norvegicus, NRK-49F, compound 0.0625 mM): 95%

Cc1ccc(=O)n(-c2ccccc2)c1 [Pirfenidone, pirfenidone, reference compound]
histological lesion score of lungs (HEP and Masson's trichrome) ([5]; alone or combined, FIG. 8): no reduction of fibrosis at the histological level | visual grading of pulmonary fibrosis (Ashcroft's score) ([5]; alone or combined, FIG. 11): weak activity | lesions and fibrosis in lungs (photomicrographs stained with HEP) ([5]; FIG. 10): no effect | TGF-β mRNA expression in lungs ([6]; FIG. 12): decreased | CTGF mRNA expression in lungs ([6]; FIG. 13): no effect | IL-23 mRNA expression in lungs ([6]; FIG. 14): decreased | IL-6 mRNA expression in lungs ([6]; FIG. 15): decreased | collagen 3 mRNA expression in lungs ([6]; FIG. 18): no effect | collagen 1 mRNA expression in lungs ([6]; reduction to the control level, FIG. 16): significant reduction | fibronectin (FN-1) mRNA expression in lungs ([6]; reduction to the control level, FIG. 17): significant reduction | Toxicity related to drug [7]: Vertigo ++++ | Toxicity related to drug ([7]; listed as pirfenidone): severe vertigo
